Source: patent publication US7057012B1, “PTH functional domain conjugate peptides, derivatives thereof and novel tethered ligand-receptor molecules” (The General Hospital Corporation, priority 1998, dated 2006)

How the values were obtained:
the receptor = target: T1, the receptor (Homo sapiens, UniProt Q03431); conditions: cited from earlier work
T1 sequence (Q03431 27-593): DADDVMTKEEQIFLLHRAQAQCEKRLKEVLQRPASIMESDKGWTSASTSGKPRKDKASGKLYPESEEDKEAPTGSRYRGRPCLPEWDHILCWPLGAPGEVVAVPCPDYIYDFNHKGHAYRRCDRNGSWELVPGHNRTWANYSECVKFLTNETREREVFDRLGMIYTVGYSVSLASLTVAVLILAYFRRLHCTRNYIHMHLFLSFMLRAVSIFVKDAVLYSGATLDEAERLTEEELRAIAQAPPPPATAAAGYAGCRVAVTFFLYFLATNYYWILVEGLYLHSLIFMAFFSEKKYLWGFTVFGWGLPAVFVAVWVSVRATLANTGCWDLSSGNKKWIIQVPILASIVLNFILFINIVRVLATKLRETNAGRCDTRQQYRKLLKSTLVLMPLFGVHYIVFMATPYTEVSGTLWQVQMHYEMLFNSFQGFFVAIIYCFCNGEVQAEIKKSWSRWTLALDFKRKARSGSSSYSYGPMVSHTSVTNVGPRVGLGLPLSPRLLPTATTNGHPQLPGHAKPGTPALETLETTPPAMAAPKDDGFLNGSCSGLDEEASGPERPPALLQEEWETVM

AC = conditions: cited from earlier work
rat PTH-1 receptor = target: T2, rat PTH-1 receptor (Rattus norvegicus, UniProt P25961); conditions: CHO cells expressing the cloned rat PTH-1 receptor; cited from earlier work
T2 construct: host or cells: CHO cells
T2 sequence (P25961 27-591): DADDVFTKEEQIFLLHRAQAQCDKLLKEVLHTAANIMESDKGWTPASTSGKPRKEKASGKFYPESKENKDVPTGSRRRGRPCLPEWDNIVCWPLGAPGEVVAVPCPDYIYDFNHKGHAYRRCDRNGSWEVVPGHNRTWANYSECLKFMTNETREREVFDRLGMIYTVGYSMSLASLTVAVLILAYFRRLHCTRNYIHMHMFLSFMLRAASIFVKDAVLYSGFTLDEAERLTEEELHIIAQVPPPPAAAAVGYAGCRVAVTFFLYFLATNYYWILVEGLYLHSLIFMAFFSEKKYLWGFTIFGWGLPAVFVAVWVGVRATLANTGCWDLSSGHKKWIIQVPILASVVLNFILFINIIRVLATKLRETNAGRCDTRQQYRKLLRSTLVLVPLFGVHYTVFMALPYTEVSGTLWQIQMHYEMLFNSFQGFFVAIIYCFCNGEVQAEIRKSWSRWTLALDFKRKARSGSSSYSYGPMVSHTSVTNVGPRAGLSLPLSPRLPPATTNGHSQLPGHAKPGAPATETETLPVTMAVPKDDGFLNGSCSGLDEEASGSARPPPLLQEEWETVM

hP1R-Tether constructs = experiment: Q-PTH(1–34) cAMP stimulation of the hP1R-Tether constructs and alanine mutants in COS-7 cells; assay type: cell-based, human
Description: (§1) Cell Culture: COS-7 cells were cultured at 37° C. in T-75 flasks ([…] in Dulbecco's modified Eagle's medium (DMEM) supplemented with fetal bovine serum (10%), penicillin G (20 units/ml), streptomycin sulfate (20 μg/ml) and amphotericin B (0.05 μg/ml) in a humidified atmosphere containing 5% CO2. Cells were sub-cultured in 24-well plates and, when confluent, were treated with fresh media and shifted to 33° C. for 12 to 24 h prior to the assay (Bergwitz, C., et al., J. Biol. Chem. 272:28861–28868 (1997); Abell, A., et al., J. Biol. Chem. 271:4518–4527 (1996)).
(§2) PTH Receptor mutagenesis and COS-7 cell expression: The pcDNA-1-based plasmid encoding the intact HPTH-1 receptor (HK-WT in reference (Schipani, E., et al., Endocrinol. 132:2157–2165 (1993)) and herein called hP1R-WT) was used for studies in COS-7 cells. The truncated human PTH-1 receptor (hP1R-de1Nt) (FIG. 18) was constructed from the HK-WT plasmid by oligonucleotide-directed mutagenesis (Kunkel, T. A., Proc. Natl. Acad. Sci. USA 82:488–492 (1985)). […]
(§3) cAMP Stimulation: Stimulation of cells with peptide analogs was performed in 24-well plates. […] The cAMP content of the diluted lysate was determined by radioimmunoassay.

hP1r-de1NT = target: T3, hP1r-de1NT (Homo sapiens, UniProt Q03431); experiment: Q-PTH(1–34) cAMP dose-response, COS-7 cells expressing hP1R-delNT; assay type: cell-based
T3 construct: expressed in transfected cells; host or cells: COS-7 cells, transient, DEAE-dextran
T3 sequence (Q03431 with tags, fused parts or gaps): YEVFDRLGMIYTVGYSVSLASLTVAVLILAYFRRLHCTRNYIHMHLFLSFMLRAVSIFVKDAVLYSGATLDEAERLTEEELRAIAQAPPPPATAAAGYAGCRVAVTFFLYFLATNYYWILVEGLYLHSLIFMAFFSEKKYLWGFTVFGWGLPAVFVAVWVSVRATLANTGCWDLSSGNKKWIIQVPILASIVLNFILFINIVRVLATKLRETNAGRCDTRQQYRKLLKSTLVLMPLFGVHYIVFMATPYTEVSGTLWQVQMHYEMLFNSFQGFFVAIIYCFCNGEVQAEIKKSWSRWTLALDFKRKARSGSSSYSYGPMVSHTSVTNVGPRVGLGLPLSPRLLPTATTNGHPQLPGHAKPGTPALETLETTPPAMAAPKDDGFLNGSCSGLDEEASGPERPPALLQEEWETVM
Description: as §1, §2, §3

hP1R-[R^11]-Tether(1–11) = target: T4, hP1R-[R^11]-Tether(1–11) (Homo sapiens, UniProt Q03431); experiment: Q-PTH(1–34) cAMP dose-response, COS-7 cells expressing hP1R-[R11]-Tether(1–11); assay type: cell-based
T4 construct: expressed in transfected cells; host or cells: COS-7 cells, transient, DEAE-dextran
T4 sequence (Q03431 with tags, fused parts or gaps): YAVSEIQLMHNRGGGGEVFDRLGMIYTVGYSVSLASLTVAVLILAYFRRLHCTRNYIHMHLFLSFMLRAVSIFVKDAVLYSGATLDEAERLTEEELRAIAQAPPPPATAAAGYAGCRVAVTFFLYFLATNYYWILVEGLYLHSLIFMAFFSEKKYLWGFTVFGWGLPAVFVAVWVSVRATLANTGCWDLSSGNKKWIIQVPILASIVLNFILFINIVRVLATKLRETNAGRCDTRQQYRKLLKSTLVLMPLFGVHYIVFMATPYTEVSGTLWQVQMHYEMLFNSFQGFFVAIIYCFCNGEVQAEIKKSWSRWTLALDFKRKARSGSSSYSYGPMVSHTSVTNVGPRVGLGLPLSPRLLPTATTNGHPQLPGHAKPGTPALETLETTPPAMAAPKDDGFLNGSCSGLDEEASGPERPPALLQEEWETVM
Description: as §1, §2, §3

hP1R-Tether(1–9) = target: T5, hP1R-Tether(1–9) (Homo sapiens, UniProt Q03431); experiment: Q-PTH(1–34) cAMP dose-response, COS-7 cells expressing hP1R-Tether(1–9); assay type: cell-based
T5 construct: expressed in transfected cells; host or cells: COS-7 cells, transient, DEAE-dextran
T5 sequence (Q03431 with tags, fused parts or gaps): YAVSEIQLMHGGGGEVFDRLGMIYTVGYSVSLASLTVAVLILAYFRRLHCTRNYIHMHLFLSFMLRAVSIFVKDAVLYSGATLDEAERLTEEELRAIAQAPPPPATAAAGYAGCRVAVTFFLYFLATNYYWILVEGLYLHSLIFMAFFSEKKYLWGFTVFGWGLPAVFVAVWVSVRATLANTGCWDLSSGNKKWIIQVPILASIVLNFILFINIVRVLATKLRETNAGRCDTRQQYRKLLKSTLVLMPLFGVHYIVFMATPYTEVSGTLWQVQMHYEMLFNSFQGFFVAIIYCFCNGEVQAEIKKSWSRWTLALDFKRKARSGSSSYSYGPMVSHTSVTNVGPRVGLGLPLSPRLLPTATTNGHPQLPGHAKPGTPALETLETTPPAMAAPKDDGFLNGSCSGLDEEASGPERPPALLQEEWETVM
Description: as §1, §2, §3

rat renal membranes = conditions: cited from earlier work

PTH(15–34)
binding to the receptor (the receptor): binds weakly | activation of AC (AC): does not activate AC

PTHrP(1–16) (AVSEHQLLHDKGKSIQ; Parathyroid hormone-related protein; UniProt P12272 37-52, looked up, fragment) [short NH2-terminal PTHrP peptide investigated previously]
activity in AC assays (rat PTH-1 receptor): inactive

[Ala^1,3,10,12,Arg^11, Tyr^34]hPTH(1–34)NH2 [Q-PTH(1–34)]
dose-response curves for the hP1R-Tether constructs relative to hP1R-de1NT (hP1R-Tether constructs): parallel and left-shifted | cAMP response of the alanine mutants of hP1R-[R11]-Tether(1–11) to exogenous ligand (hP1R-Tether constructs; alanine scan mutants): responded well | cAMP dose-response relative to the intact wildtype receptor (hP1r-de1NT): right-shifted response | maximum cAMP response (hP1r-de1NT): capable of producing a maximum cAMP response | cAMP dose-response relative to the intact wildtype receptor (hP1R-[R^11]-Tether(1–11)): right-shifted response | maximum cAMP response (hP1R-[R^11]-Tether(1–11)): capable of producing a maximum cAMP response | cAMP dose-response relative to the intact wildtype receptor (hP1R-Tether(1–9)): right-shifted response | maximum cAMP response (hP1R-Tether(1–9)): capable of producing a maximum cAMP response

bPTH(1–12) (AVSEIQFMHNLG; Parathyroid hormone; UniProt P01268 32-43, looked up, fragment) [short NH2-terminal PTH peptide investigated previously]
activity in adenylyl cyclase assays (rat renal membranes): inactive
